# Measurements taken from PubChem BioAssay (NCI).
# Several values for one entry are separate records, joined by “and”; a condition that tells them apart may be missing. Identical values can stand only once.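 Briefly, cells in 96-well plates were exposed to five compound concentrations for 48 h, and endpoints were estimated by linear interpolation. Here, GI50 denotes the concentration required for 50% inhibition of growth. TGI: concentration producing complete growth inhibition.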
# Columns and labels:
# Experiment in all cases: inhibition of tumour cell growth, NCI panel, 48 h
# A498 renal = tested on: A498 renal
# CCRF-CEM leukemia = tested on: CCRF-CEM leukemia
# EKVX NSCLC = tested on: EKVX NSCLC
# HCT-15 colon = tested on: HCT-15 colon
# OVCAR-3 ovarian = tested on: OVCAR-3 ovarian
# OVCAR-4 ovarian = tested on: OVCAR-4 ovarian
# SF-268 CNS = tested on: SF-268 CNS
# SK-MEL-2 melanoma = tested on: SK-MEL-2 melanoma
# SK-MEL-5 melanoma = tested on: SK-MEL-5 melanoma
# SNB-19 CNS = tested on: SNB-19 CNS
Structure (SMILES),TGI (A498 renal) [µM],TGI (CCRF-CEM leukemia),TGI (EKVX NSCLC),TGI (HCT-15 colon),TGI (OVCAR-3 ovarian),TGI (OVCAR-4 ovarian),TGI (SF-268 CNS),TGI (SK-MEL-2 melanoma) [µM],TGI (SK-MEL-5 melanoma) [µM],TGI (SNB-19 CNS) [µM],GI50 (A498 renal),GI50 (CCRF-CEM leukemia) [µM],GI50 (EKVX NSCLC) [µM],GI50 (HCT-15 colon) [µM],GI50 (OVCAR-3 ovarian),GI50 (OVCAR-4 ovarian) [µM],GI50 (SF-268 CNS) [µM],GI50 (SK-MEL-2 melanoma),GI50 (SK-MEL-5 melanoma),GI50 (SNB-19 CNS)
CC(C)(C)OC(=O)NC(Cc1ccccc1)C(=S)N1CCCC1 (stereo not drawn),> 100,> 100 µM,> 100 µM,> 100 µM,> 100 µM,> 100 µM,> 100 µM,> 100,> 100,> 100,–,–,–,–,–,–,–,–,–,–
Oc1cccc2ccc(SSc3ccc4cccc(O)c4n3)nc12,77.4,> 100 µM,> 100 µM,53.3 µM,34.7 µM,34.2 µM,75.4 µM,39.9,> 100,> 100,–,–,–,–,–,–,–,–,–,–
COC(=O)[C@@H](C)C[C@H](Cc1ccc(F)cc1)NC(=O)c1csc([C@@H](C[C@H](C(C)C)N(C)C(=O)[C@@H](NC(=O)[C@H]2CCCCN2C)C2CC2)OC(C)=O)n1,6.87,> 25 µM,> 25 µM,> 25 µM,0.633 µM,> 25 µM,> 25 µM,> 25,1.46,> 25,0.598 µM,0.153,0.88,0.828,0.0723 µM,2.37,1.16,0.169 µM,0.0957 µM,0.164 µM
Cc1ccc(NC(=O)CCc2nnc3s/c(=C\C=C\c4ccccc4)c(=O)n23)cc1,> 100,74.3 µM,> 100 µM,> 100 µM,> 87.2 µM,> 56.2 µM,> 100 µM,> 91.9,> 100,> 100,–,–,–,–,–,–,–,–,–,–
COc1ccc2c(c1)/C(=C\c1c(-c3ccccc3)nc3sccn13)C(=O)N2,5.11,> 100 µM,> 43.6 µM,> 35.6 µM,0.444 µM,> 96.8 µM,13.4 µM,44.5,21.3,> 58.3,0.63 µM,5.5,12.1,–,0.122 µM,15.6,2.11,18 µM,6.06 µM,> 21.5 µM
O=[N+]([O-])c1cc(I)cc(/C=N/NS(=O)(=O)c2ccc(F)cc2)c1O,91.6,53.9 µM,92.9 µM,64.7 µM,38.6 µM,> 100 µM,61.5 µM,35.7,45.2,> 100,–,–,–,–,–,–,–,–,–,–
O=C1CC=C2C3CC4N(CCC45c4ccccc4N1C25)C/C3=C\CO (stereo not drawn),> 100,> 100 µM,> 100 µM,> 100 µM,> 100 µM,> 100 µM,> 100 µM,> 100,> 100,> 100,–,–,–,–,–,–,–,–,–,–
C[N+]1(CCNP(=S)(NCC[N+]2(C)Cc3c(ccc4c3OCO4)C3C2c2cc4c(cc2C[C@@H]3O)OCO4)NCC[N+]2(C)Cc3c(ccc4c3OCO4)C3C2c2cc4c(cc2C[C@@H]3O)OCO4)Cc2c(ccc3c2OCO3)C2C1c1cc3c(cc1C[C@H]2O)OCO3 (stereo partly drawn),–,> 383 µM,–,< 0.00191 µM,–,–,–,< 0.00191,–,–,1.54 µM,–,45.9,–,1.68 µM,4.74,6.67,–,1.89 µM,7.66 µM
COC(=O)[C@@H](C)C[C@H](Cc1ccccc1)NC(=O)c1csc([C@@H](C[C@H](C(C)C)N(C)C(=O)[C@@H](NC(=O)[C@H]2CCCCN2C)c2ccc(F)cc2)OC(C)=O)n1,> 100,25 µM and > 100 µM,25 µM and > 100 µM,25 µM and > 100 µM,0.0157 µM and 0.129 µM,25 µM and > 100 µM,25 µM and > 100 µM,> 100,–,> 100,0.0216 µM and 0.127 µM,–,–,–,0.00309 µM and 0.0103 µM,–,–,0.00682 µM and 0.0293 µM,0.00535 µM and 0.0025 µM and 0.0101 µM,0.0163 µM and 0.0441 µM
